Key:
cancer cells = assay: Annexin V/PI staining; format: cell-based; conditions: 0.1, 0.25, and 0.5 μM for 72 hours
Method: In addition, in order to confirm the apoptosis-inducing effect of the derivative of Chemical Formula 1-3, the control (DMSO) and the derivative of Chemical Formula 1-3 were treated at concentrations of 0.1, 0.25, and 0.5 μM for 72 hours, and then the degree of apoptosis was confirmed by Annexin V/PI staining.

SKBR3 cell line = assay: DNA content analysis by flow cytometry (PI), SKBR3; format: cell-based; conditions: 0.1, 0.25 and 0.5 μM for 72 hours
Method: (§1) The degree of apoptosis of cancer cells induced by the thiobenzimidazole derivative of Chemical Formula 1-3 was measured through DNA content analysis using a flow cytometry. The SKBR3, BT474 and JIMT-1 cell lines were treated with a control (DMSO) and the derivative of Chemical Formula 1-3 at concentrations of 0.1, 0.25 and 0.5 μM for 72 hours, and then the cells were harvested, immobilized with 95% ethanol containing 0.5% Tween-20 for 24 hours, and then stained with propidium iodide (PI, 50 μg/mL) and RNase (50 μg/mL) for 30 minutes. Thereafter, the degree of apoptosis of cancer cells was analyzed using a flow cytometer.
(§2) The result of such apoptosis was shown on the cell cycle as a Sub G1 site, and the ratio of Sub G1 was expressed numerically and shown in FIG. 8.

JIMT-1 cell line = assay: DNA content analysis by flow cytometry (PI), JIMT-1; format: cell-based, human; conditions: 0.1, 0.25 and 0.5 μM for 72 hours
Method: as §1, §2

[1] = tested on: HER2-positive breast cancer cell line JIMT-1; assay: MTS cell viability assay, JIMT-1; format: cell-based, human; conditions: 72 hours
Method: A human triple-negative breast cancer (TNBC) cell line MDA-MB-231 (Cell seeding numbers: 1(M231)×10^4 cells/wells (confluency ≥25%) and an HER2-positive breast cancer (HER2+BC) cell line JIMT-1 (Cell seeding numbers: 1.2 (JIMT)×10^4 cells/wells (confluency ≥25%) were used in the experiment.
The cell lines were cultured in a Dulbecco's modified Eagle's medium (DMEM) containing 10% fetal bovine serum (FBS), streptomycin-penicillin (100 U/mL) and Fungizone (0.625 μg/mL) in an environment of 5% CO2 and 37° C., respectively.
In the human breast cancer cell lines MDA-MB-231 and JIMT-1, thiobenzimidazole derivatives of Chemical Formulas 1-1, 1-2, 1-3, 1-5, 1-6, 1-7, 1-8, 1-1-11, 1-12, 1-13, 1-14, 1-15, 1-16, 1-17, 1-19, 1-20, 1-21, and 1-22 were treated at various concentrations of 0, 0.5, 1, and 5 μM for 72 hours, respectively, and then cell viability was measured by an MTS assay. In the MTS assay, the cells were attached to a 96 well plate for 24 hours, treated with the thiobenzimidazole derivatives for 72 hours, and then developed with MTS (3-(4,5-dimethylthiazol-2-yl)-5-(3-carboxymethoxyphenyl)-2-(4-sulfophenyl)-2H-tetrazolium) for 4 hours, and then absorbance was measured at 490 nm using a Spectramax Plus384 microplate analyzer. […]

[2] = tested on: HER2-positive breast cancer cell line SKBR3; assay: Cell viability assay, SKBR3; format: cell-based; conditions: SKBR3 (sensitive to Trastuzumab); 72 hours
[3] = tested on: HER2-positive breast cancer cell line BT474; assay: MTS cell viability assay, BT474; format: cell-based; conditions: 72 hours
Method: In the human breast cancer cell lines MDA-MB-231 and JIMT-1, thiobenzimidazole derivatives of Chemical Formulas 1-1, 1-2, 1-3, 1-5, 1-6, 1-7, 1-8, 1-1-11, 1-12, 1-13, 1-14, 1-15, 1-16, 1-17, 1-19, 1-20, 1-21, and 1-22 were treated at various concentrations of 0, 0.5, 1, and 5 μM for 72 hours, respectively, and then cell viability was measured by an MTS assay. In the MTS assay, the cells were attached to a 96 well plate for 24 hours, treated with the thiobenzimidazole derivatives for 72 hours, and then developed with MTS (3-(4,5-dimethylthiazol-2-yl)-5-(3-carboxymethoxyphenyl)-2-(4-sulfophenyl)-2H-tetrazolium) for 4 hours, and then absorbance was measured at 490 nm using a Spectramax Plus384 microplate analyzer. […] The HER2-positive breast cancer cell line BT474 sensitive to Trastuzumab and the HER2-positive breast cancer cell line JIMT-1 resistant to Trastuzumab were treated with the thiobenzimidazole derivative of Chemical Formula 1-3 prepared above and its hydrochloride (Compound 1-23) at the same concentrations of […], 0.1, 0.5, 1, 5, and 10 μM for 72 hours, and then cell viability and IC50 were measured by an MTS assay.

BT474 cell line = assay: DNA content analysis by flow cytometry (PI), BT474; format: cell-based; conditions: 0.1, 0.25 and 0.5 μM for 72 hours
Method: as §1, §2

SMILES | early and late apoptosis (Annexin V/PI) (cancer cells) | G2/M phase cell cycle arrest (SKBR3 cell line) | apoptosis (Sub-G1 population) (SKBR3 cell line) | G2/M phase cell cycle arrest (JIMT-1 cell line) | apoptosis (Sub-G1 population) (JIMT-1 cell line) | IC50 ([1]; Homo sapiens, JIMT-1, MTS) | inhibitory effect on cell proliferation ([1]; JIMT-1 (resistant to Trastuzumab)) | inhibitory effect on cell proliferation [2] | inhibitory effect on cell proliferation ([3]; BT474 (sensitive to Trastuzumab)) | IC50 ([3]; Homo sapiens, BT-474, BT474, MTS) | G2/M phase cell cycle arrest (BT474 cell line) | apoptosis (Sub-G1 population) (BT474 cell line) | melting point
COC(=O)Nc1nc2cc(Sc3ccc(N4CCN(C)CC4)cc3)ccc2[nH]1 [Chemical Formula 1-3, methyl (5-((4-(4-methylpiperazin-1-yl)phenyl)thio)-1H-benzo[d]imidazol-2-yl) carbamate] | early and late apoptosis were effectively induced in a concentration-dependent manner | arrested the G2/M phase cell cycle | significantly induced apoptosis (Sub-G1 population) | arrested the G2/M phase cell cycle | significantly induced apoptosis (Sub-G1 population) | 448 nM | inhibitory effect on cell proliferation was exhibited | inhibitory effect on cell proliferation was exhibited | inhibitory effect on cell proliferation was exhibited | 2180 nM | arrested the G2/M phase cell cycle | significantly induced apoptosis (Sub-G1 population) | 
COC(=O)Nc1nc2cc(Sc3ccc(F)cc3)ccc2[nH]1 [Chemical Formula 1-1, methyl 5-(4-fluorophenyl-thio)-1H-benzo[d]imidazol-2-ylcarbamate] |  |  |  |  |  |  |  |  |  |  |  |  | 232 to 233 °C

From patent publication US20230391753A1, “THIOBENZIMIDAZOLE DERIVATIVE OR PHARMACEUTICALLY ACCEPTABLE SALT THEREOF AND USE THEREOF” (KOREA UNIVERSITY RESEARCH AND BUSINESS FOUNDATION, priority 2020, published 2023)
